Publication PMC13172357 (Nature Communications, 2026)

Columns and labels:
Ma-Mel-47 cells = experiment: Total proteome analysis, DIA mass spectrometry, Ma-Mel-47 cells; assay type: cell-based, H. sapiens; settings: DIA Ma-Mel-47, 1 µM
Description: (§1) Following treatment, cells were harvested, washed twice with PBS, and pellets were flash frozen in liquid nitrogen before being stored at −80 °C. Samples were prepared using the single-pot, solid-phase-enhanced sample-preparation (SP3) strategy. All buffers and solutions were prepared with mass spectrometry (MS)-grade water (Honeywell). Cell pellets were taken up in 100 µL 1x sample buffer (50 mM Hepes pH 8.0, 1% (wt/v) SDS, 1% (v/v) NP-40, 10 mM TCEP, 40 mM chloroacetamide) and samples were heated at 90 °C for 5 min prior to sonication with a Bioruptor UCD-300 (Diagenode) for ten cycles of 1 min pulse and 30 s pause at high power. The samples were then supplemented with Benzonase (20 U/sample) and sonified for 5 min in a water bath (Bandelin) followed by 30 min incubation at […].
(§2) The protein extracts were then centrifuged (20000 ×g, RT, 40 min) and the protein concentration of the cleared lysates was determined using the Pierce 660 nm Protein Assay Reagent (#22660; Thermo Scientific) with the Ionic Detergent Compatibility Reagent (#22663; Thermo Scientific) according to the manufacturers’ instructions. Next, 15 µg of total protein per sample in a volume of 100 µL sample buffer was transferred to a 500 µL 96-well plate and treated with 7 U of benzonase (#71206; Merck Millipore) in dilution buffer (20 mM Hepes pH 8.0, 2 mM MgCl2) at 37 °C for 30 min with agitation at 1500 rpm. After Benzonase treatment samples were heated to 90 °C for 5 min and after cooling down to room temperature, iodoacetamide to a final concentration of 10 mM was added for complete alkylation of cysteines (37 °C, 15 min, 1000 rpm, in the dark).
(§3) Then, 3 µL of a 50 µg/µL 1:1 mixture of hydrophilic (#45152105050250) and hydrophobic (#65152105050250) carboxylate modified Sera-Mag SpeedBeads (Cytiva), that were washed twice with MS-grade water, were added to the samples. The next steps were carried out at room temperature unless noted otherwise. Afterwards, the samples were mixed shortly (1 min, 1000 rpm) and collected by short centrifugation (10 s, 200 ×g). […]

[1] = target: T1, NanoLuc-USP7 and HaloTag-VHL (Homo sapiens, UniProt P40337+Q93009); experiment: Cellular ternary complex formation assay (NanoBRET), HEK293T cells; assay type: cell-based; settings: for Ternary complex induction (in words): NanoBRET
T1 construct: expressed in transfected cells; host or cells: HEK293T, transient transfection (FuGENE HD)
Description: The assay was performed as described step-by-step elsewhere. USP7 (NanoLuc-USP7) and VHL (HaloTag-VHL) were cloned in frame with N-terminal NanoLuc or HaloTag, respectively. For transfections, HEK293T cells were diluted in Opti-MEM medium without phenol red (Life Technologies) to 4×10^5 cells/mL and 9 µL were pipetted into each well of a white 384-well plate (Greiner 781207). 1 mL transfection mix was prepared containing 30 µL FuGENE HD (Promega, E2312) and 8 µL of each plasmid, incubated 20 min at RT and 1 µL were pipetted into each well leading to the total assay volume of 10 µL. […] 2 h prior to BRET measurements, the compounds were titrated to the cells using an Echo acoustic dispenser and the cells were incubated further at 37 °C and 5% CO2 to allow complex formation. NanoBRET Nano-Glo substrate and Extracellular NanoLuc Inhibitor (Promega, N2540) were then added as per the manufacturer’s protocol, and filtered luminescence was recorded on a PHERAstar FSX plate reader (BMG Labtech) equipped with a luminescence filter pair (donor: 450 nm BP filter; acceptor: 610 nm LP filter). Data were analyzed using GraphPad Prism 10 software.

Panc89 cells [2] = experiment: Total proteome analysis, DIA mass spectrometry, Panc89 cells; assay type: cell-based, H. sapiens; settings: DIA Panc89, 1 µM
Description: as §1
as §2, with “After Benzonase treatment samples were heated to 90 °C for 5 min and after cooling down to room temperature, iodoacetamide to a final concentration of 10 mM was added for complete alkylation of cysteines (37 °C, 15 min, 1000 rpm, in the dark).” left out

USP7 = target: T2, USP7 (Homo sapiens, UniProt Q93009); experiment: Immunofluorescence staining of USP7, Panc89 cells; assay type: cell-based; settings: Panc89, 1 µM, 24 h
T2 construct: allowed the analysis of endogenous USP7 degradation in both cell lines; endogenous in cells; host or cells: Panc89 (PDAC) and Ma-Mel-47 (melanoma) cells
Description: Panc89 cells were seeded on 96-well plates (89626, Ibidi) and treated with either DMSO or compound for the indicated time and concentration. Cells were then fixed with 4% PFA in PBS for 20 min, permeabilized with 0.1% Triton X-100 in PBS for 10 min and incubated in blocking buffer containing 2% BSA in PBS for 1 h. Three 10 min washes with PBS were performed between different steps. Cells were treated with primary antibody anti-USP7 (ab190183, Abcam, rabbit, 1:500) in blocking solution for 1 h at RT. […] Finally, cells were stained with DAPI (Invitrogen, 1 µg/mL) in PBS for 10 min and mounted with aqueous mounting medium (50001, Ibidi) for microscopy. Plates were imaged on a fully automated inverted EVOS M7000 microscope system (Invitrogen) with X-Apo 20x air objective (0.8 NA, Olympus, AMEP4906) using DAPI (AMEP4950), GFP (AMEP4951), RFP (AMEP4952), and Cy5 (AMEP4956) LED light cubes. Images were captured using a high-sensitivity 3.2 MP monochrome CMOS camera and were processed with Omero (v. web 5.28.0).

Panc89 cells [3] = experiment: Confluence measurement (cell growth), Panc89; assay type: cell-based, human; settings: Panc89, 1-10 µM, 72 h, 25 mM or 5 mM D-glucose
Panc89 cells [4] = experiment: Total proteome analysis, DDA mass spectrometry, Panc89 cells; assay type: cell-based, H. sapiens; settings: DDA Panc89, 1 µM
Description: as §1, §2, §3

T1 sequence (Q93009 whole entry): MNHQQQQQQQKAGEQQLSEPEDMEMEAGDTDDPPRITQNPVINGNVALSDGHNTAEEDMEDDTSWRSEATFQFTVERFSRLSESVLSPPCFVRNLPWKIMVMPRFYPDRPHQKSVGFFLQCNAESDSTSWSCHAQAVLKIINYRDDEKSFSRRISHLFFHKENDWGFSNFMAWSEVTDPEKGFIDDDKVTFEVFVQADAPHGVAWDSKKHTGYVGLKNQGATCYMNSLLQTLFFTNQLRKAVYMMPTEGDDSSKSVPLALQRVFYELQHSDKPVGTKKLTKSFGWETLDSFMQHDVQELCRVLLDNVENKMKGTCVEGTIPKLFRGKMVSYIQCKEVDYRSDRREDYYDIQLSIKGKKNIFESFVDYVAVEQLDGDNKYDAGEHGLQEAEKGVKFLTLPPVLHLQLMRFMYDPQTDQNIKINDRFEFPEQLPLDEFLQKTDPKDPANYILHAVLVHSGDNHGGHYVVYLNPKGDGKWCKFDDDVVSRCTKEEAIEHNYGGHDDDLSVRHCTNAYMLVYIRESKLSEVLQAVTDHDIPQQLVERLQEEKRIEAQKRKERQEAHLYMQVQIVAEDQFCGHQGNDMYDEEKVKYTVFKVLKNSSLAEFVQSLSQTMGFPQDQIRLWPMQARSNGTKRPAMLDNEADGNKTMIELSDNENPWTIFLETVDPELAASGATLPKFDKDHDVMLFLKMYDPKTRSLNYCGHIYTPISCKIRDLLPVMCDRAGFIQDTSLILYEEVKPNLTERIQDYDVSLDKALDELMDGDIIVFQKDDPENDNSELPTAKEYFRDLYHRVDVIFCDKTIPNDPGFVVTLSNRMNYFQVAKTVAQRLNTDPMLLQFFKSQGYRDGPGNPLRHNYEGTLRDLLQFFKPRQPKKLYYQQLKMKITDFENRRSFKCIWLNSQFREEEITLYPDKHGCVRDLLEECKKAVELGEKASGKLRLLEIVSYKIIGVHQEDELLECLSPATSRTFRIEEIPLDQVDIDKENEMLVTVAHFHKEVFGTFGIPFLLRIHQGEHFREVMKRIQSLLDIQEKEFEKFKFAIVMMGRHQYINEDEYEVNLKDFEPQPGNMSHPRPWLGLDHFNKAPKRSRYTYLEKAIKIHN
T1 sequence (P40337 whole entry): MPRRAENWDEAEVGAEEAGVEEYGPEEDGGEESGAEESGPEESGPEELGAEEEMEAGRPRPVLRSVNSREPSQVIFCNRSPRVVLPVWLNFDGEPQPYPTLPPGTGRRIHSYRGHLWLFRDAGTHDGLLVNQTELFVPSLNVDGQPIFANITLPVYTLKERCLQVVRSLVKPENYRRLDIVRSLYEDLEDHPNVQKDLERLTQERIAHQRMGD
T1 sequence (Q15370 whole entry partner): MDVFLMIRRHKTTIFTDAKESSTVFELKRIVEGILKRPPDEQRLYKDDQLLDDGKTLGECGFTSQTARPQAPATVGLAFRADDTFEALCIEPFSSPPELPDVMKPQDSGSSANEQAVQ
T1 sequence (Q15369 whole entry partner): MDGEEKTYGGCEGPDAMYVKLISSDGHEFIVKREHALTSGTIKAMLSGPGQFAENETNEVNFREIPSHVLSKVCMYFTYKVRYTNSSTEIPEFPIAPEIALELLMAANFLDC
T2 sequence (Q93009 whole entry): as the sequence (Q93009 whole entry) above

Cc1ncsc1-c1ccc([C@H](C)NC(=O)[C@@H]2C[C@@H](O)CN2C(=O)[C@@H](NC(=O)C23C4C5C2C2C3C4C52C(=O)N2CCC(C3CCN(c4ccc(-n5ncc6c(=O)n(CC7(O)CCN(C(=O)C[C@@H](C)c8ccccc8)CC7)cnc65)cc4)CC3)CC2)C(C)(C)C)cc1 (stereo partly drawn) [NK266]
USP7 protein level change (in words) (Ma-Mel-47 cells; 6 h): only minimal reduction
USP7 protein level change (in words) (Ma-Mel-47 cells; 24 h): the most decreased protein
Ternary complex induction (in words) [1]: did not increase the BRET signal to the same level

Cc1ncsc1-c1ccc(CNC(=O)[C@@H]2C[C@H](O)CN2C(=O)[C@@H](NC(=O)[C@H]2CC[C@H](C(=O)N3CCN(c4ccc(-n5ncc6c(=O)n(CC7(O)CCN(C(=O)C[C@@H](C)c8ccccc8)CC7)cnc65)cc4)CC3)CC2)C(C)(C)C)cc1 [NK245]
Changes to the proteome (in words) (Ma-Mel-47 cells; 72 h): only showed minimal changes to the proteome
Changes to the proteome (in words) (Panc89 cells [2]; 72 h): only showed minimal changes to the proteome
Ternary complex induction (in words) [1]: neither the negative control NK245 nor the VHL ligand VH298 induced a ternary complex

Cc1ncsc1-c1ccc([C@H](C)NC(=O)[C@@H]2C[C@@H](O)CN2C(=O)[C@@H](NC(=O)[C@H]2CC[C@H](C(=O)N3CCN(c4ccc(-n5ncc6c(=O)n(CC7(O)CCN(C(=O)C[C@@H](C)c8ccccc8)CC7)cnc65)cc4)CC3)CC2)C(C)(C)C)cc1 [NK250]
USP7 immunofluorescence signal (in words) (USP7): strongly reduced
Cell growth (in words) (Panc89 cells [3]): not affected
Proteins significantly decreased (in words) (Panc89 cells [2]; 6 h): USP7 was the only protein that was significantly decreased
Proteins significantly decreased (in words) (Panc89 cells [4]; 6 h): USP7 was the only protein significantly decreased
Reduction of USP7 protein levels (Panc89 cells [4]; after three days): more than 100 fold
EC50 ([1]; compound 2 h prior BRET measurement, read-out: EC50 (half-maximal ternary complex formation concentration)): 58 nM
